# Experimental data taken from patent US11179379B2, “Compositions and methods for hemoglobin production” (THE CHILDREN'S HOSPITAL OF PHILADELPHIA, priority 2017, dated 2021).
# Tested on: HUDEP-2 expressing Cas9 cells
# Test: Combination of eIF2αK1 gRNA and pomalidomide, HbF positive cells
# Assay type: cell-based, human
# Details: pomalidomide in combination with eIF2αK1 inhibition (eIF2αK1 gRNA #3 or #5); three independent experiments
# Description: FIG. 3 is a graph of the percentage of cells positive for HbF expression. HUDEP-2 expressing Cas9 cells were transduced with eIF2αK1 sgRNA #3, eIF2αK1 sgRNA #5, a gRNA targeting BCL11A exon 2, or a negative control gRNA. Cells were then incubated with or without pomalidomide. n=3.
# Combination experiments with the immunomodulatory pomalidomide, which is an HbF inducer, were also performed. If eIF2αK1 inhibition works at least in part by altering protein translation, additive effects may be observed when using compounds that predominantly affect transcription of fetal globin genes. Briefly, HUDEP-2 expressing Cas9 cells were transduced with eIF2αK1 gRNA #3, eIF2αK1 gRNA #5, a gRNA targeting BCL11A exon 2, or a negative control gRNA. The cells were then incubated with or without pomalidomide. […] Indeed, the results with pomalidomide in combination with eIF2αK1 inhibition were very strong in three independent experiments, even stronger than those observed with Bcl11A inhibition and pomalidomide.
row,Compound,number of HbF positive cells
1,Nc1cccc2c1C(=O)N(C1CCC(=O)NC1=O)C2=O (stereo not drawn) [pomalidomide],greatly increased

# Tested on: eIF2αK1
# Test: not given
# Details: literature reports; cited from earlier work
row,Compound,inhibition of eIF2αK1 activity
1,uroporphyrin,inhibit eIF2αK1 activity
2,C=CC1=C(C)c2cc3[n-]c(cc4[n-]c(cc5nc(cc1n2)C(C)=C5C=C)c(C)c4CCC(=O)O)c(CCC(=O)O)c3C.[Cl-].[Fe+3] [Fe(III)-hemin],inhibit eIF2αK1 activity
3,O=c1c(O)c(-c2ccc(O)c(O)c2)oc2cc(O)cc(O)c12 [Quercetin],ATP-competitive kinase inhibitor of eIF2αK1
4,C=CC1=C(C)c2cc3[n-]c(cc4[n-]c(cc5nc(cc1n2)C(C)=C5C=C)c(C)c4CCC(=O)O)c(CCC(=O)O)c3C.[Fe+2] [Fe(II)-heme],inhibit eIF2αK1 activity
5,C=CC1=C(C)/C(=C/C2=NC(=C\c3[nH]c(/C=C4\NC(=O)C(C)=C4C=C)c(C)c3CCC(=O)O)/C(CCC(=O)O)=C2C)NC1=O [biliverdin],inhibit eIF2αK1 activity
